One molecule from patent US9353152B2, “Induction of the mitochondrial permeability transition” (NewSouth Innovations Pty Limited, priority 2002, dated 2016) can be followed below.

Each structure is given as a SMILES string. Several values for one entry are separate records, joined by “and”; a condition that tells them apart may be missing. Equal entries are not always repeated. Where two headings read alike, the source gives them in different places.

Data set [1] has as its system bovine vascular smooth muscle cells. In words: Proliferation arrest. The class given is cell-based. On the procedure: (§1) To distinguish between the anti-proliferative and pro-apoptotic effects of GSAO, treated cells were stained with propidium iodide (PI) to detect late-apoptotic or dead cells. The total number of cells and the proportion of cells that were PI-positive following 48 h treatment with GSAO were measured by flow cytometry.

The nature of data set [2]: Tolerability in tumour-bearing mice. Format: in vivo, SCID or C57Bl6/J mice. The protocol:
Female 7 to 9 week old SCID or C57Bl6/J mice were used (Massachusetts General Hospital, Boston, Mass.). Mice were held in groups of 3 to 5 at a 12 hour day and night cycle and were given animal chow and water ad libidum. SCID or C57Bl6/J mice were anaesthetised by inhalation of isoflurane, the dorsal skin shaved and cleaned with ethanol, and a suspension of 2.5×10^6 BxPC-3, HT1080 or LLC cells in 0.2 mL of PBS, or saline for LLC cells, was injected S.C. in the proximal midline. LLC cells were prepared according to O'Reilly et al. (1997). Tumour volume was calculated using the relationship, a·b^2·0.52, where a is the longest and b the shortest diameter.

A further data set has as its system CAM angiogenesis. In words: Chick chorioallantoic membrane (CAM) angiogenesis assay. Format: in vivo. The conditions noted are these: 5, 10 or 50 μg per pellet, 48 h. On the procedure: Fertilised 3 day-old white Leghorn eggs (Spafas, Norwich, Conn.) were cracked, the embryos with intact yolks placed in 20×100 mm petri dishes and incubated for 3 days at 37° C. and 3% CO2 (Folkman, 1985). Methylcellulose (Fisher Scientific, Fair Lawn, N.J.) discs containing 5, 10 or 50 μg of either GSAA or GSAO were then applied to the CAM of individual embryos and incubated for 48 h at 37° C. and 3% CO2. The discs were made by desiccation of GSAA or GSAO in 10 μl of 0.45% methycellulose on teflon rods. The CAMs were observed using a stereomicroscope and scored for no obvious affect or inhibition of CAM angiogenesis as defined by avascular zones. On some occasions CAM blood vessels were injected with India ink and photographed.

The target of data set [3] is T1, MPTP (Rattus norvegicus, UniProt Q09073).
T1 construct: Mitochondria were isolated from the livers of ˜250 g male Wistar rats; from tissue; host or cells: rat liver mitochondria (male Wistar rats)
T1 sequence (Q09073 2-298 limits assumed): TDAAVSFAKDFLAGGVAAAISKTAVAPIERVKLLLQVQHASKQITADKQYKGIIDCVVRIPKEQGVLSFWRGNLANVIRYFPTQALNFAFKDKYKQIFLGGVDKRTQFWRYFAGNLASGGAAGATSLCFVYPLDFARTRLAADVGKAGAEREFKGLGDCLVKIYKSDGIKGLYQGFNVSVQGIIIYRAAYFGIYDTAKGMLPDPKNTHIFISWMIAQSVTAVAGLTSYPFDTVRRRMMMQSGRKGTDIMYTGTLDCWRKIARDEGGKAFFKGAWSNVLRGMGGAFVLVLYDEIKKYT
Format: biochemical.

In data set [4] the test system is HL60 (human erythroid leukaemia). In words: Proliferation arrest and loss of viability (cell number and propidium iodide, flow cytometry). The class given is cell-based. The note with it: HL60, 48 h. The protocol:
as §1
(In general: In flow cytometry, cells or beads pass a laser one at a time.)

The test system of data set [5] is LLC (murine lung carcinoma). The data set is described as above. The class given is cell-based. The note with it: 48 h. The protocol:
as §1

Data set [6] concerns A549 (human lung carcinoma). Described as above. The class given is cell-based. The note with it: A549, 48 h. On the procedure:
as §1

Data set [7] deals with HDMVE (human dermal endothelial). The description is as above. Format: cell-based. The note with it: 48 h. On the procedure:
as §1

Data set [8] deals with BAE (bovine aortic endothelial). The description is as above. Format: cell-based. The note with it: 48 h. The protocol: as §1
In data set [9] the test system is BAE cells. Description: Cell proliferation and viability assay (MTT). The note with it: 10% serum, 48 h; read-out: IC50 for proliferation arrest of BAE cells. The class given is cell-based, bovine. The protocol:
BAE or human pancreatic carcinoma BxPC-3 cells were seeded at a density of 10^3 cells per well into 96 well plates in DMEM containing 10% foetal bovine serum and allowed to adhere for 24 h. Cells were washed and incubated with DMEM containing 10% foetal bovine serum and GSAO or o-GSAO and cultured for a further 48 h. Some BAE cells were arrested for 24 h in medium containing 0.25% serum and cultured for a further 48 h in medium containing 0.25% or 10% serum, in the presence of GSAO or o-GSAO. Viable attached cells were determined using MTT.

Data set [10] in a line: Titration of arsenoxide compounds with DTT. Format: physicochemical. The conditions noted are these: GSAO versus Compound 1.
The test system of data set [11] is BAE cells. The class given is cell-based, bovine.
Data set [12] has as its target T1, MPTP. In words: Mitochondria swelling assay (MPT induction, decrease in light scattering at 520 nm). The class given is biochemical.
The test system of data set [13] is BAE cells. The conditions noted are these: read-out: IC50 (μM)*.
A short description of data set [14]: Side-effects in Balb-C nude mice bearing BxPC-3 tumours. The class given is in vivo. The conditions noted are these: 1 or 10 mg/kg/day s.c. The protocol:
Female 7 to 9 week old Balb C nude were used (UNSW Biological Resource Centre). Mice were held in groups of 3 to 5 at a 12 h day and night cycle and were given animal chow and water ad libidum. A suspension of 2.5×10^6 BxPC-3 cells in 0.2 mL of PBS was injected subcutaneously in the proximal midline. Tumours were allowed to establish and grow to a size of ˜40 mm^3 after which they were randomised into four groups. Tumour volume was calculated using the relationship, a·b^2·0.52, where a is the longest and b the shortest diameter. Animals were treated with either GSAO or o-GSAO at a dose 1 or 10 mg/kg/day in 0.1 mL of PBS. The compounds were administered subcutaneously at a site distant from the tumour. Tumour volume and animal weight was measured every 2 or 3 days.
Balb-C nude mice bearing ˜40 mm^3 BxPC-3 tumours were randomised into four groups (n=10 or 11 per group) and treated subcutaneously with either GSAO (part A) or o-GSAO (part B) at 1 or 10 mg/kg/day in 0.1 mL of PBS. Parts C and D are the mice weights for the respective groups, where the arrow indicates start of treatment. The data points are the mean±SE of the tumour volumes or mice weights. Treatment with 10 mg/kg o-GSAO (part B) was stopped at day 14 due to necrosis and inflammation at sites of injection in 7 out of 11 mice (3/11 with severe ulcers, 4/11 with medium ulcers).

[15] abbreviates: read-out: Loss of Viability IC50.
[16] abbreviates: read-out: Proliferation Arrest IC50.

For `N[C@@H](CCC(=O)N[C@@H](CSCC(=O)Nc1ccc([As]=O)cc1)C(=O)NCC(=O)O)C(=O)O` (stereo partly drawn) [GSAO, 4-(N—(S-glutathionylacetyl)amino)-phenylarsenoxide], the IC50 was approximately 30 µM in data set [1]; 140 µM in data set [4] (setting [15]); 50 µM in data set [4] (setting [16]); 140 µM in data set [5]; 150 µM in data set [6] (setting [15]); 80 µM in data set [6] (setting [16]). Further, the IC50 in data set [7] (setting [15]) is ~35 µM and 35 µM; in data set [7] (setting [16]), ~15 µM and 15 µM; in data set [8] (setting [15]) it was ~75 µM and 75 µM; in data set [8] (setting [16]) it was ~10 µM and 10 µM; with BAE cells [9] it was 8.3 ± 2.1 µM; with BAE cells [13], 8.28 µM. Moreover, the “adverse affects of administration” value in [2] (10 mg/kg/day s.c.) was “no apparent adverse affects”. The “morphological changes in the heart, lungs, liver, kidneys, and spleen” value in data set [2] (10 mg/kg/day s.c.) was “no morphological changes”. In addition, the “average mice weights over the course of the experiments” value in data set [2] (GSAO versus GSAA treatment groups) was “the same”. The “inhibition of CAM angiogenesis (avascular zones)” value in the data set with CAM angiogenesis is recorded as “inhibited CAM angiogenesis in a concentration-dependent manner”. The “MPTP Swelling Rate Increase/GSAO* Mean” value at MPTP [3] is 1. For the same molecule, the “arsenical reactivity (titration with DTT)” value in data set [10] was “no significant difference”. Further, in the data set on BAE cells [11], the “cellular levels of O2^− versus concentration” value is recorded as “increased linearly with GSAO concentration in proliferating, but not growth-quiescent, BAE cells”. In addition, the “decrease in H2O2” value with BAE cells [11] turned out to be 30%. For the same molecule, the “increase in the level of O2^−” value in the data set on BAE cells [11] is 100%. Moreover, the “half-time for GSAO mediated swelling of the mitochondria” value on MPTP [12] (50-200 μM GSAO, increasing Ca^2+ concentration) is listed as “reduced by added Ca^2+”. Moreover, at MPTP [12] (GSAO 25-200 μM, GSAA, GSCA 100 μM, 60 min), the “swelling of isolated rat liver mitochondria” value is reported as “triggered swelling”. Moreover, the “side-effects (behavioural, skin necrosis, weight loss) with GSAO administration” value in [14] is reported as “not observed”.
